Reference: ChEMBL document CHEMBL1159010, “Constituents of Azadirachta indica: isolation and structure elucidation of a new antibacterial tetranortriterpenoid, mahmoodin, and a new protolimonoid, naheedin” (1992)

Columns and labels:
Format in all cases: functional
Conditions in all cases: read-out: IZ
Shigella sonnei = test: Antimicrobial activity against Shigella sonnei at 10 mg
Salmonella = test: Antimicrobial activity against Salmonella schotmuelleri at 10 mg
Klebsiella pneumoniae = test: Antimicrobial activity against Klebsiella pneumoniae at 10 mg
Bacillus cereus = test: Antimicrobial activity against Bacillus cereus at 10 mg
Bacillus subtilis = test: Antimicrobial activity against Bacillus subtilis at 10 mg
Corynebacterium xerosis = test: Antimicrobial activity against Corynebacterium xerosis at 10 mg
Staphylococcus aureus = test: Antimicrobial activity against Staphylococcus aureus at 10 mg
Streptococcus pyogenes = test: Antimicrobial activity against Streptococcus pyogenes at 10 mg
Enterococcus faecalis = test: Antimicrobial activity against Streptococcus faecalis at 10 mg

CC(=O)O[C@@H]1C[C@H]2C(C)(C)C(=O)C=C[C@]2(C)[C@H]2CC[C@]3(C)C(=CC(=O)O[C@@]3(OCCO)c3ccoc3)[C@@]21C
zone of inhibition at 10000 µg/disc (Shigella sonnei): 16 mm | zone of inhibition at 10000 µg/disc (Salmonella): 20 mm | zone of inhibition at 10000 µg/disc (Klebsiella pneumoniae): 15 mm | zone of inhibition at 10000 µg/disc (Bacillus cereus): 18 mm | zone of inhibition at 10000 µg/disc (Bacillus subtilis): 20 mm | zone of inhibition at 10000 µg/disc (Corynebacterium xerosis): 17 mm | zone of inhibition at 10000 µg/disc (Staphylococcus aureus): 17 mm | zone of inhibition at 10000 µg/disc (Streptococcus pyogenes): 28 mm | zone of inhibition at 10000 µg/disc (Enterococcus faecalis): 22 mm
